Laboratory results taken from patent US20120009240A1, “Films for Delivery of a Therapeutic Agent” (priority 2010, published 2012).
Counter-ions that a name gives are not always drawn.

Test: Saturation and payload limits for dip coating a polyester mesh (Parietex monofilament mesh) with bupivacaine HCl solution (FIG. 8)
Assay type: physicochemical
Settings: polyester mesh without a polymer film
Excerpt: Further, it is believed that spraying films on a medical device (e.g., mesh) compared to other conventional methods, such as dip coating, provides increased loading of the therapeutic agent.
More particularly FIG. 8 illustrates the loading limits for a polyester mesh (Parietex™ monofilament mesh) without a polymer film.

saturation and payload limits for dip coating (solution in MeOH): 12 % w/v | saturation and payload limits for dip coating (solution in water): 5 % w/v
Compound: CCCCN1CCCCC1C(=O)Nc1c(C)cccc1C (centres unmarked) [bupivacaine hydrochloride]
